Experimental data taken from US20080124274A1, “Compositions and methods for detecting and treating tumors containing acidic areas” (priority 2006, published 2008).
Where “and” joins values, the source holds several entries; their conditions need not be identical. Equal entries are not always repeated.

What was measured:
[1] = urine rendered basic; cited from earlier work
tumors = conditions: tumor-bearing mice; reduction of about 0.3 pH units in the tumors; cited from earlier work
[2] = Titration of the sodium salt with HCl in aqueous solution
Procedure: Typically new structures that may be suitable as advanced pH-switch components are first assessed for their pKa value in normal saline. This entails preparing the sodium salt form of the structure and dissolving it at a concentration of 20 milliMolar in 15 ml of 0.15 Molar NaCl (deareated to remove CO2). […] A plot of pH versus volume of added HCl affords the effective pKa value. It is also desirable to carry out this same titration in methanol/water (1:1 by vol) in order to get an estimate of the pKa value independent of insolubility effects.

acidic areas of tumors = conditions: without corresponding reduction of pH in normal tissues; cited from earlier work

CC(=O)Nc1nnc(S(N)(=O)=O)s1 [Acetazolamide]
pH of the urine [1]: ≥ 7.4

O=C(O)CCCc1ccc(N(CCCl)CCCl)cc1 [Chlorambucil]
improvement in tumor growth delay (tumors): 1.7 fold

CN(C)C(=O)C=CC(=O)O [FIG. 14b]
mid-point of the transition between salt and acid (pKa value) ([2]; sodium salt titrated with HCl in aqueous solution): below 3.0

N=C(N)NCc1cccc([131I])c1 [meta-iodobenzylguanidine, reference compound]
reduction of the pH in acidic areas of tumors (acidic areas of tumors): further reduced

CCC[N+]1([O-])CCC(C(=O)O)CC1 (stereo not drawn) [structure iii in FIG. 16b, N-oxide of N-propylisonipocotic acid]
minimum of the first derivative of the titration curve (pH) ([2]; sodium salt titrated in aqueous solution): ~4.0 and ~5.6

glucose and meta-iodobenzylguanidine
reduction of the pH in acidic areas of tumors (acidic areas of tumors): ≤ 0.7 pH unit
